In patent US12384769B2, “Heteroaryl-substituted aminoalkyl azole compounds as pesticides” (Elanco Animal Health GmbH, priority 2019, dated 2025):

What was measured:
Type in all cases: in vivo
[1] = tested on: Boophilus microplus; experiment: Boophilus microplus injection test (BOOPMI Injection); conditions: Rhipicephalus microplus, 168 h, injection into adult engorged female ticks, egg deposition after 7 days, read-out: activity (efficacy, infertile eggs); for pest or weed control at 0.02 mg: 20 μg/animal; for pest or weed control at 0.004 mg: 4 μg/animal
In short: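 Adult engorged female ticks (5 per group) injected into the abdomen with 1 μL compound in DMSO, then held in a climate chamber. Fertile egg deposition scored after 7 days, with unclear eggs kept until hatching (~42 days). Efficacy 100% = all eggs infertile, 0% = all fertile.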

[2] = tested on: Rhipicephalus microplus (strain Parkhurst, resistant against synthetic pyrethroids); experiment: Rhipicephalus microplus in-vitro contact test, larval cattle tick (BOOPMI Contact); conditions: 5 μg/cm^2 (=500 g/ha), after 48 hours, read-out: activity (efficacy, larvae dead or moribund)
In short: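 Efficacy, expressed as percentage of larvae dead or moribund, is judged by negative geotactic behaviour 48 h after larvae (20-50 per tube) enter tubes whose inner walls carry a dried acetone film of compound, 5 μg/cm² at 900 ppm. Incubation: horizontal, 27 °C, 85% relative humidity.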

[3] = tested on: Meloidogyne incognita; experiment: Meloidogyne incognita test; conditions: 20 ppm, after 14 days
Description: Meloidogyne incognita—Test
Solvent: 125.0 parts by weight of acetone
To produce a suitable preparation of active compound, 1 part by weight of active compound is mixed with the stated amount of solvent, and the concentrate is diluted with water to the desired concentration.
Vessels are filled with sand, a solution of the active ingredient, a suspension containing eggs and larvae of the southern root-knot nematode (Meloidogyne incognita) and salad seeds. The salad seeds germinate, and the seedlings grow. Galls develop in the roots.
After 14 days the nematicidal activity is determined based on the percentage of gall formation. 100% means no galls were found and 0% means the number of galls found on the roots of the treated plants was equal to that in untreated control plants.

[4] = tested on: Myzus persicae; experiment: Myzus persicae spray test; conditions: foliar, 120 h, Chinese cabbage leaf disks, after 5 days
Description: Myzus persicae—Spray Test
(§1) Solvent: 78.0 parts by weight acetone • 1.5 parts by weight dimethylformamide
(§2) Emulsifier: alkylarylpolyglycol ether
(§3) To produce a suitable preparation of active compound, 1 part by weight of active compound is mixed with the stated amount of solvents and is diluted with water, containing an emulsifier concentration of 1000 ppm, to the desired concentration. Further test concentrations are prepared by dilution with emulsifier containing water.
Chinese cabbage (Brassica pekinensis) leaf disks infected with all instars of the green peach aphid (Myzus persicae), are sprayed with a preparation of the active ingredient of the desired concentration.
(§4) After 5 days mortality in % is determined. 100% means all aphids have been killed and 0% means none of the aphids have been killed.

[5] = tested on: Ctenocephalides felis; experiment: Ctenocephalides felis oral test (CTECFE); conditions: 48 h, 100 ppm in cattle blood, after 2 days
In short: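 About 20 adult unfed fleas fed through parafilm on cattle blood held at 37° C and dosed with compound from a DMSO concentrate; flea chamber at room temperature. Percent mortality scored after 2 days.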

[6] = tested on: Rhipicephalus sanguineus; experiment: Rhipicephalus sanguineus in-vitro contact test, adult brown dog ticks (RHIPSA Contact); conditions: 5 μg/cm^2 (=500 g/ha), after 48 hours, read-out: activity (efficacy, ticks dead or moribund)
In short: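 Acetone solution coated onto glass tube walls; 900 ppm gives 5 μg/cm^2. After drying, 5-10 adult ticks per tube kept at room temperature for 48 h, then placed on a 45-50° C heating plate up to 5 min; ticks unable to climb away counted dead or moribund, efficacy as % affected.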

[7] = tested on: Diabrotica balteata; experiment: Diabrotica balteata spray test; conditions: 168 h, wheat seeds, after 7 days, read-out: activity (efficacy, seedlings grown); for pest or weed control at 160 µg/disc, 500 g/ha: 500 g/ha (=160 μg/well)
In short: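 Efficacy was read 7 days after infesting each unit with 10–20 banded cucumber beetle larvae, as % of seedlings growing like untreated, uninfested controls. Before infestation, wheat seeds germinated 1 day on agar (5 per well) were sprayed with the active ingredient. The active was formulated in acetone/DMF and diluted in water containing emulsifier.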

[8] = tested on: Tetranychus urticae; experiment: Tetranychus urticae spray test OP-resistant; conditions: foliar, 144 h, 500 g/ha, French bean leaf disks, after 6 days
Description: Tetranychus urticae—Spray Test OP-Resistant
as §1, §2, §3
French bean (Phaseolus vulgaris) leaf disks infected with all instars of the two spotted spidermite (Tetranychus urticae) are sprayed with a preparation of the active ingredient of the desired concentration.
After 6 days mortality in % is determined. 100% means all spider mites have been killed and 0% means none of the spider mites have been killed.

[9] = tested on: Ctenocephalides felis; experiment: Ctenocephalides felis in-vitro contact test, adult cat flea; conditions: 5 μg/cm^2 (=500 g/ha), after 48 hours, read-out: activity (efficacy, fleas dead or moribund)
In short: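 Acetone solutions coated onto inner walls of glass tubes; 900 ppm gives 5 μg/cm^2. After drying, 5-10 adult Ctenocephalides felis per tube held 48 h at room temperature. Fleas then placed on 45-50° C. plate for up to 5 min; those unable to climb away scored dead or moribund, efficacy as % dead/moribund.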

[10] = tested on: Myzus persicae; experiment: Myzus persicae oral test; conditions: 120 h, after 5 days
Description: Solvent: 100 parts by weight acetone
Afterwards the plates are sealed with parafilm through which a mixed population of the green peach aphid (Myzus persicae) can suck on the compound preparation.
as §4

[11] = tested on: Spodoptera frugiperda; experiment: Spodoptera frugiperda spray test; conditions: in Zea mays, 168 h, read-out: activity (mortality)
In short: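 Larvae of fall armyworm placed on dried maize leaf sections previously sprayed with emulsified compound (acetone/DMF solvent, water with 1000 ppm emulsifier). Percent of caterpillars killed recorded on day 7, 0–100% scale.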

[12] = tested on: Aedes aegypti strain MONHEIM; experiment: Aedes aegypti test (AEDSAE surface treatment & contact assay); conditions: 30 minutes exposure, 24 hours after contact, read-out: efficacy (mortality); for mortality at 20 mg/m2: surface concentration 20 mg/m^2, glazed tile
Description: Aedes aegypti Test (AEDSAE Surface Treatment & Contact Assay)
(§5) Solvent: Aceton+2000 ppm rapeseed oil methyl ester (RME)
(§6) In order to produce a sufficient, active ingredient containing solution it is necessary to solve the test compound in the solvent-mix (acetone at 2 mg/mL/RME 2000 ppm). This solution is pipetted onto a glazed tile and after evaporation of the acetone, adult mosquitoes of the species Aedes aegypti strain MONHEIM are placed onto the dried surface. The exposure time is 30 minutes.
(§7) Mortality in percent (%) is determined 24 hours after contact of the insects to the treated surface. 100% mortality means that all tested insects are dead, whereas 0% means that no insect died.

[13] = tested on: Culex quinquefasciatus strain P00; experiment: Culex quinquefasciatus test (CULXFA surface treatment & contact assay); conditions: surface concentration 20 mg/m^2, glazed tile, 30 minutes exposure, 24 hours after contact, read-out: efficacy (mortality)
Description: Culex quinquefasciatus Test (CULXFA Surface Treatment & Contact Assay)
as §5
as §6, with “2 000” for “2000”, “Culex quinquefasciatus” for “Aedes aegypti”, “P00” for “MONHEIM”
as §7

[14] = tested on: Anopheles funestus strain FUMOZ-R; experiment: Anopheles funestus test (ANPHFU surface treatment & contact assay); conditions: 30 minutes exposure, 24 hours after contact, read-out: efficacy (mortality); for mortality at 20 mg/m2: surface concentration 20 mg/m^2, glazed tile
Description: Anopheles funestus Test (ANPHFU Surface Treatment & Contact Assay)
as §5
as §6, with “Anopheles funestus” for “Aedes aegypti”, “FUMOZ-R (Hunt et al., Med. Vet. Entomol. 2005 September; 19(3): 271-275)” for “MONHEIM”
as §7

[15] = tested on: Musca domestica strain WHO-N; experiment: Musca domestica test (MUSCDO surface treatment & contact assay); conditions: 30 minutes exposure, 24 hours after contact, read-out: efficacy (mortality)
Description: Musca domestica Test (MUSCDO Surface Treatment & Contact Assay)
as §5
as §6, with “flies” for “mosquitoes”, “Musca domestica” for “Aedes aegypti”, “WHO—N” for “MONHEIM”
as §7

[16] = surface concentration 4 mg/m^2, glazed tile

Row | Compound | pest or weed control at 0.02 mg [1] [%] | pest or weed control at 5 µg/cm2 [2] [%] | activity (nematicidal activity, gall formation) [3] [%] | mortality at 100 ppm [5] [%] | pest or weed control at 160 µg/disc, 500 g/ha [7] [%] | pest or weed control at 5 µg/cm2, 5 µg/cm2 [9] [%] | mortality at 500 g/ha [11] [%] | mortality at 100 g/ha [4] [%] | other results
1 | Cc1nc([C@H](C)Nc2nc3cc(Cl)cc(C(F)(F)F)c3o2)n(-c2ccc(C#N)cn2)n1 [Example I-091, 6-{5-[(1S)-1-{[5-Chlor-7-(trifluormethyl)-1,3-benzoxazol-2-yl]amino}ethyl]-3-methyl-1H-1,2,4-triazol-1-yl)nicotinonitril] | 100 | 90 | 90 | – | – | – | – | – | mortality at 500 g/ha ([4]; 500 g/ha): 90%
2 | C[C@H](Nc1nc2cc(C3CC3)cc(Cl)c2o1)c1ncnn1-c1ncccc1F [Example I-067, 7-Chlor-5-cyclopropyl-N-{(1S)-1-[1-(3-fluorpyridin-2-yl)-1H-1,2,4-triazol-5-yl]ethyl}-1,3-benzoxazol-2-amin] | 100 | – | – | 80 | 80 | – | – | – | pest or weed control at 0.004 mg [1]: 100%; pest or weed control at 5 µg/cm2, 5 µg/cm2 [6]: 80%; mortality at 500 g/ha [8]: 90%
3 | C[C@H](Nc1nc2cc(Cl)cc(C(F)(F)F)c2o1)c1ncnn1-c1ccc(C(F)(F)F)cn1 [Example I-087, 5-Chlor-7-(trifluormethyl)-N-[(1S)-1-{1-[5-(trifluormethyl)pyridin-2-yl]-1H-1,2,4-triazol-5-yl}ethyl]-1,3-benzoxazol-2-amin] | – | 100 | 90 | – | – | – | – | – | –
4 | C[C@H](Nc1nc2cc(C(F)(F)F)cc(C(F)(F)F)c2o1)c1ncnn1-c1ncccn1 [Example I-005] | 100 | 100 | – | 100 | 100 | 100 | 100 | – | pest or weed control at 0.004 mg [1]: 100%; mortality at 4 ppm [10]: 90%; mortality at 100 g/ha [11]: 100%; mortality at 20 mg/m2 [12]: 90 to 100%; mortality at 20 mg/m2 [13]: 90 to 100%; mortality at 20 mg/m2 [14]: 90 to 100%
5 | C[C@H](Nc1nc2cc(Cl)cc(C(F)(F)F)c2o1)c1ncnn1-c1ccc(C#N)cn1 [Example I-088, 6-{5-[(1S)-1-{[5-Chlor-7-(trifluormethyl)-1,3-benzoxazol-2-yl]amino}ethyl]-1H-1,2,4-triazol-1-yl}nicotinonitril] | – | 100 | 90 | – | 100 | – | 83 | – | –
6 | C[C@H](Nc1nc2cc(C(F)(F)F)cc(Cl)c2o1)c1ncnn1-c1ccc(Cl)nn1 [Example I-046, 7-Chlor-N-{(1S)-1-[1-(6-chlorpyridazin-3-yl)-1H-1,2,4-triazol-5-yl]ethyl}-5-(trifluormethyl)-1,3-benzoxazol-2-amin] | – | 80 | 90 | – | – | – | – | – | –
7 | C[C@H](Nc1nc2c(Cl)cc(C(F)(F)F)cn2n1)c1ncnn1-c1ncccn1 [Example I-092, 8-chloro-N-{(1S)-1-[1-(pyrimidin-2-yl)-1H-1,2,4-triazol-5-yl]ethyl}-6-(trifluoromethyl)[1,2,4]triazolo[1,5-a]pyridin-2-amine] | 100 | 100 | – | 100 | – | 90 | – | 90 | –
8 | C[C@H](Nc1nc2cc(Cl)c(Cl)cc2o1)c1ncnn1-c1ncccn1 [Example I-016] | 100 | 100 | – | – | 100 | – | 100 | – | pest or weed control at 100 g/ha [7]: 100%; mortality at 500 g/ha [8]: 90%
9 | C[C@H](Nc1nc2c(Cl)cc(C(F)(F)F)cn2n1)c1ncnn1-c1ncc(Br)cn1 [Example I-093, N-{(1S)-1-[1-(5-bromopyrimidin-2-yl)-1H-1,2,4-triazol-5-yl]ethyl}-8-chloro-6-(trifluoromethyl)[1,2,4]triazolo[1,5-a]pyridin-2-amine] | – | 100 | – | 100 | – | 100 | – | 90 | –
10 | C[C@H](Nc1nc2cc(OC(F)(F)F)c(Cl)cc2o1)c1ncnn1-c1ncc(F)cn1 [Example I-081, 6-Chlor-N-{(1S)-1-[1-(5-fluorpyrimidin-2-yl)-1H-1,2,4-triazol-5-yl]ethyl}-5-(trifluormethoxy)-1,3-benzoxazol-2-amin] | – | 90 | – | – | – | 100 | – | 90 | pest or weed control at 5 µg/cm2, 5 µg/cm2 [6]: 100%; pest or weed control at 100 g/ha [7]: 100%; mortality at 4 ppm [10]: 90%; mortality at 100 g/ha [11]: 100%; mortality at 4 mg/m2 [12, 16]: 85 to 100%; mortality at 20 mg/m2 [12]: 90 to 100%; mortality at 4 mg/m2 [14, 16]: 85 to 100%; mortality at 20 mg/m2 [14]: 90 to 100%; mortality at 4 mg/m2 [15, 16]: 90 to 100%; mortality at 20 mg/m2 ([15]; surface concentration 20 mg/m^2, glazed tile): 90 to 100%
